Here are results for 28 compounds from patent US8088763B2 (priority 2004, dated 2012).

Usually inhibition stands for the drop in the measured response relative to a control, in per cent.

One assay deals with NA-uptake (Rattus norvegicus, UniProt Q63380). The experiment in a line: biochemical. To be noted: read-out: NA-uptake [10 μM], % inhibition.
A further assay concerns the target T1, 5HT-uptake (Rattus norvegicus, UniProt P31652).
T1 construct: synaptosomes were freshly isolated from areas of rats' brains
The experiment in a line: biochemical. To be noted: read-out: 5HT-uptake [10 μM], % inhibition.

T1 sequence (P31652 whole entry): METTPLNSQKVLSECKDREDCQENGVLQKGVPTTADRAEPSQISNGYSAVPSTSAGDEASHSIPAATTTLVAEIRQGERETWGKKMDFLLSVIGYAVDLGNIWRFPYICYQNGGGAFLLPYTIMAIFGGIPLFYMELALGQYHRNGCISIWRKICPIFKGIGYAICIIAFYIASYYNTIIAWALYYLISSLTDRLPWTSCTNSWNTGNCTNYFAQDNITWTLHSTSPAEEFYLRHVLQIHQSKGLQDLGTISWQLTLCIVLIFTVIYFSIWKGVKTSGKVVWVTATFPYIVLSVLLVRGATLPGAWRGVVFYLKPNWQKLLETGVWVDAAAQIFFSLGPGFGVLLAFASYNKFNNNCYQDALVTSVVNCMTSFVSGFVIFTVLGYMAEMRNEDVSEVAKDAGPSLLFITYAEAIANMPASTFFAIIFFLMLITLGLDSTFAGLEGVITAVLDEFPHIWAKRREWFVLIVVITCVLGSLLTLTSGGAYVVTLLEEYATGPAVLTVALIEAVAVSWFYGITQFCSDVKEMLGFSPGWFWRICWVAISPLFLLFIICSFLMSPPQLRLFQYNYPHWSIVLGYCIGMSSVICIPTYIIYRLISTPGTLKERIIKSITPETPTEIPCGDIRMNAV
Sequence of NA-uptake (Q63380 1-617): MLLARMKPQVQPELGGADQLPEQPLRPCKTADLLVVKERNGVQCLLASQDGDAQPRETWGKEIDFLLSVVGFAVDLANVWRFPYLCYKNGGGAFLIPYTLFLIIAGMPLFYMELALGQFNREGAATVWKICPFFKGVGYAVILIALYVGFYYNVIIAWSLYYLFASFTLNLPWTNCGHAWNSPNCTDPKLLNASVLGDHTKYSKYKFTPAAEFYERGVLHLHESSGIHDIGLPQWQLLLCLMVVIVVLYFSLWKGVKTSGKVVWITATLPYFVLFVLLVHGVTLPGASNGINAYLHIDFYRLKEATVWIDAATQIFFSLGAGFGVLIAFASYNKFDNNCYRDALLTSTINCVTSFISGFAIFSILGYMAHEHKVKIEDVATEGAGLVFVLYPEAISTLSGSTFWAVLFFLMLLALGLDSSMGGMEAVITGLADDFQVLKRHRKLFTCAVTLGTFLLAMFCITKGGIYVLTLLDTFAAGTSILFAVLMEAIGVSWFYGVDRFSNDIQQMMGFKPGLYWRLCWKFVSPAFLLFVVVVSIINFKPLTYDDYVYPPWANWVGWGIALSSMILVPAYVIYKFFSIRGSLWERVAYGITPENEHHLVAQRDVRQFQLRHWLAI

In the case of `CN(Cc1cccnc1)C(=O)CCC(=O)NC1CCC(Cc2cccc(Cl)c2)(N(C)C)CC1` (centres unmarked) [Example 137, N-[4-(3-chloro-benzyl)-4-dimethylamino-cyclohexyl]-N′-methyl-N′-pyridin-3-ylmethyl-succinamide], the inhibition at 10 µM was found to be 83% at NA-uptake and 94% at 5HT-uptake.
On the same counts, the results for `COc1ccccc1N1CCN(C(=O)CCC(=O)NC2CCC(Cc3ccc(Cl)cc3)(N(C)C)CC2)CC1` (centres unmarked) [Example 47, N-[4-(4-chloro-benzyl)-4-dimethylamino-cyclohexyl]-4-[4-(2-methoxy-phenyl)-piperazin-1-yl]-4-oxo-butyramide] are 73% and 93%.
On the same counts, the results for `Cc1ccc(CC2(N(C)C)CCC(NC(=O)CCC(=O)NC(C)C(=O)OC(C)(C)C)CC2)cc1` (centres unmarked) [Example 61, 2-{3-[4-dimethylamino-4-(4-methyl-benzyl)-cyclohexylcarbamoyl]-propionylamino}-propanoic acid-tert-butylester] are 93% and 92%.
On the same counts, the results for `CCC(C)C(NC(=O)CCC(=O)NC1CCC(Cc2cccc(C)c2)(N(C)C)CC1)C(=O)OC(C)(C)C` (centres unmarked) [Example 102, 2-{3-[4-dimethylamino-4-(3-methyl-benzyl)-cyclohexylcarbamoyl]-propionylamino}-3-methyl-valeric acid tert-butyl ester] are 105% and 94%.
`COCC(Cc1ccccc1)NC(=O)CCC(=O)NC1CCC(Cc2cccc(Cl)c2)(N(C)C)CC1` (centres unmarked) [Example 123, N-[4-(3-chloro-benzyl)-4-dimethylamino-cyclohexyl]-N′-(1-methoxymethyl-2-phenyl-ethyl)-succinamide]: the inhibition at 10 µM on NA-uptake worked out at 99%; at 5HT-uptake, 92%.
On the same counts, the results for `Cc1ccc(CC2(N(C)C)CCC(NC(=O)CCC(=O)N3CC=C(c4ccccc4)CC3)CC2)cc1` (centres unmarked) [Example 87, N-[4-dimethylamino-4-(4-methyl-benzyl)-cyclohexyl]-4-oxo-4-(4-phenyl-3,6-dihydro-2H-pyridin-1-yl)-butyramide] are 94% and 96%.
On the same counts, the results for `Cc1ccc(CC2(N(C)C)CCC(NC(=O)CCC(=O)NC3CCN(Cc4c(Cl)cccc4Cl)C3)CC2)cc1` (centres unmarked) [Example 1, N-[1-(2,6-dichloro-benzyl)-pyrrolidin-3-yl]-N′-[4-dimethylamino-4-(4-methyl-benzyl)-cyclohexyl]-succinamide] are 71% and 93%.
As to `Cc1ccccc1CNC(=O)CCC(=O)NC1CCC(Cc2ccc(Cl)cc2)(N(C)C)CC1` (centres unmarked) [Example 50, N-[4-(4-chloro-benzyl)-4-dimethylamino-cyclohexyl]-N′-(2-methyl-benzyl)-succinamide], the inhibition at 10 µM amounted to 89% on NA-uptake and 92% on 5HT-uptake.
As to `COc1ccc2[nH]cc(CCNC(=O)CCC(=O)NC3CCC(Cc4cccc(C)c4)(N(C)C)CC3)c2c1` (centres unmarked) [Example 139, N-[4-dimethylamino-4-(3-methyl-benzyl)-cyclohexyl]-N′-(2-(5-methoxy-1H-indol-3-yl)-ethyl]-succinamide], the inhibition at 10 µM worked out at 95% at NA-uptake and 93% on 5HT-uptake.
For `Cc1cccc(CC2(N(C)C)CCC(NC(=O)CCC(=O)N3CCc4[nH]c5ccc(F)cc5c4C3)CC2)c1` (centres unmarked) [Example 106, N-[4-dimethylamino-4-(3-methyl-benzyl)-cyclohexyl]-4-(8-fluoro-1,3,4,5-tetrahydro-pyrido[4,3-b]indol-2-yl)-4-oxo-butyramide], the inhibition at 10 µM worked out at 98% on NA-uptake and 93% on 5HT-uptake.
The like results for `CCOP(=O)(Cc1ccc(NC(=O)CCC(=O)NC2CCC(Cc3ccc(Cl)cc3)(N(C)C)CC2)cc1)OCC` (centres unmarked) [Example 93, (4-{3-[4-(4-chloro-benzyl)-4-dimethylamino-cyclohexylcarbamoyl]-propionylamino}-benzyl)-phosphonic acid diethylester] were, in that order, 75% and 92%.
On the same counts, the results for `COc1cccc(N2CCN(C(=O)CCCC(=O)NC3CCC(Cc4ccccc4)(N(C)C)CC3)CC2)c1` (centres unmarked) [Example 91, 5-[4-(3-methoxy-phenyl)-piperazin-1-yl]-5-oxo-valeric acid (4-benzyl-4-dimethylamino-cyclohexyl)-amide] are 101% and 92%.
For `CN(C)C1(Cc2ccc(Cl)cc2)CCC(NC(=O)CCC(=O)NCCC(c2ccccc2)c2ccccc2)CC1` (centres unmarked) [Example 3, N-[4-(4-chloro-benzyl)-4-dimethylamino-cyclohexyl]-N′-(3,3-diphenyl-propyl)-succinamide], the inhibition at 10 µM at NA-uptake was determined as 89%; at 5HT-uptake it was 94%.
The like results for `CN(C)C1(Cc2ccc(Cl)cc2)CCC(NC(=O)CCC(=O)Nc2ccc3c(c2)CCC3)CC1` (centres unmarked) [Example 100, N-[4-(4-chloro-benzyl)-4-dimethylamino-cyclohexyl]-N′-indan-5-yl-succinamide] were, in that order, 77% and 92%.
In the case of `CN(C)C1(Cc2ccc(Cl)cc2)CCC(NC(=O)CCC(=O)N2CC=CCC2)CC1` (centres unmarked) [Example 5, N-[4-(4-chloro-benzyl)-4-dimethylamino-cyclohexyl]-4-(3,6-dihydro-2H-pyridin-1-yl)-4-oxo-butyramide], the inhibition at 10 µM at NA-uptake turned out to be 80%; on 5HT-uptake it was 93%.
On the same counts, the results for `Cc1cccc(CC2(N(C)C)CCC(NC(=O)CCC(=O)NC(C)c3ccc4ccccc4c3)CC2)c1` (centres unmarked) [Example 122, N-[4-dimethylamino-4-(3-methyl-benzyl)-cyclohexyl]-N′-(1-naphthalen-2-yl-ethyl)-succinamide] are 102% and 93%.
The like results for `CCOP(=O)(Cc1ccc(NC(=O)CCC(=O)NC2CCC(Cc3cccc(C)c3)(N(C)C)CC2)cc1)OCC` (centres unmarked) [Example 46, (4-{3-[4-dimethylamino-4-(3-methyl-benzyl)-cyclohexylcarbamoyl]-propionylamino}-benzyl)-phosphonic acid diethylester] were, in that order, 89% and 92%.
The like results for `COCCCNC(=O)CCC(=O)NC1CCC(Cc2ccc(Cl)cc2)(N(C)C)CC1` (centres unmarked) [Example 26, N-[4-(4-chloro-benzyl)-4-dimethylamino-cyclohexyl]-N′-(3-methoxy-propyl)-succinamide] were, in that order, 79% and 93%.
As for `Cc1cccc(N2CCN(C(=O)CCCC(=O)NC3CCC(Cc4ccccc4)(N(C)C)CC3)CC2)c1C` (centres unmarked) [Example 56, 5-[4-(2,3-dimethyl-phenyl)-piperazin-1-yl]-5-oxo-valeric acid (4-benzyl-4-dimethylamino-cyclohexyl)-amide], the inhibition at 10 µM on NA-uptake came to 96%; on 5HT-uptake it was 95%.
With `COc1ccc(NC(=O)CCC(=O)NC2CCC(Cc3ccc(Cl)cc3)(N(C)C)CC2)cc1` (centres unmarked) [Example 108, N-[4-(4-chloro-benzyl)-4-dimethylamino-cyclohexyl]-N′-(4-methoxy-phenyl)-succinamide], the figures for the inhibition at 10 µM at NA-uptake and at 5HT-uptake were 100% and 94%, respectively.
As to `CN(C)C1(Cc2ccc(Cl)cc2)CCC(NC(=O)CCC(=O)NCc2cc(F)cc(F)c2)CC1` (centres unmarked) [Example 49, N-[4-(4-chloro-benzyl)-4-dimethylamino-cyclohexyl]-N′-(3,5-difluoro-benzyl)-succinamide], the inhibition at 10 µM on NA-uptake worked out at 98%; on 5HT-uptake, 92%.
As for `Cc1ccc(CC2(N(C)C)CCC(NC(=O)CCC(=O)N3CCN(C(=O)c4cnc(C)cn4)CC3)CC2)cc1` (centres unmarked) [Example 10, N-[4-dimethylamino-4-(4-methyl-benzyl)-cyclohexyl]-4-[4-(5-methyl-pyrazin-2-carbonyl)-piperazin-1-yl]-4-oxo-butyramide], the values for the inhibition at 10 µM at NA-uptake and at 5HT-uptake were 78% and 92%, respectively.
For `CC1CCN(C(=O)CCC(=O)NC2CCC(Cc3ccc(Cl)cc3)(N(C)C)CC2)CC1` (centres unmarked) [Example 60, N-[4-(4-chloro-benzyl)-4-dimethylamino-cyclohexyl]-4-(4-methyl-piperidin-1-yl)-4-oxobutyramide], the inhibition at 10 µM worked out at 71% on NA-uptake and 93% on 5HT-uptake.
In the case of `COc1ccc(NC(=O)CCC(=O)NC2CCC(Cc3cccc(C)c3)(N(C)C)CC2)cc1` (centres unmarked) [Example 75, N-[4-dimethylamino-4-(3-methyl-benzyl)-cyclohexyl]-N′-(4-methoxy-phenyl)-succinamide], the inhibition at 10 µM was determined as 99% at NA-uptake and 97% on 5HT-uptake.
The like results for `CC(CCc1ccccc1)NC(=O)CCC(=O)NC1CCC(Cc2ccc(Cl)cc2)(N(C)C)CC1` (centres unmarked) [Example 83, N-[4-(4-chloro-benzyl)-4-dimethylamino-cyclohexyl]-N′-(1-methyl-3-phenyl-propyl)-succinamide] were, in that order, 105% and 93%.
On the same counts, the results for `C=CCN(C)C(=O)CCC(=O)NC1CCC(Cc2ccc(Cl)cc2)(N(C)C)CC1` (centres unmarked) [Example 17, N-allyl-N′-[4-(4-chloro-benzyl)-4-dimethylamino-cyclohexyl]-N-methyl-succinamide] are 82% and 93%.
For the compound `CN(C)C1(Cc2cccc(Cl)c2)CCC(NC(=O)CCC(=O)NCc2cc(Cl)ccc2Cl)CC1` (centres unmarked) [Example 133, N-[4-(3-chloro-benzyl)-4-dimethylamino-cyclohexyl]-N′-(2,5-dichloro-benzyl)-succinamide], the inhibition at 10 µM worked out at 97% at NA-uptake and 93% on 5HT-uptake.
Consider `Cc1ccc(CC2(N(C)C)CCC(NC(=O)CCC(=O)N3CCN(c4ccc(Cl)cc4)CC3)CC2)cc1` (centres unmarked) [Example 96, 4-[4-(4-chloro-phenyl)-piperazin-1-yl]-N-[4-dimethylamino-4-(4-methyl-benzyl)-cyclohexyl]-4-oxo-butyramide], for which the inhibition at 10 µM worked out at 87% at NA-uptake and 94% on 5HT-uptake.
